From patent US9752236B2, “Corrosion inhibitors” (Rhodia Operations, priority 2010, dated 2017)

Columns and labels:
[1] = Linear Polarisation Resistance (LPR) bubble test, corrosion inhibition under oilfield conditions; conditions: 20 ppm actives; 5% NaCl brine/Isopar M 9:1; 60° C.; constant CO2; 15 hours
Protocol: [formula] where baseline corrosion was calculated by taking the average corrosion rate of each cell before the corrosion inhibitors were introduced.
The same tests as described in Example 1 were carried out on the products set out in Table 3 below.

[2] = Static acid immersion test in 5% w/w HCl; conditions: 50° C., 24 hours, 2000 ppm w/w active inhibitor
Protocol: (§1) Static acid immersion tests were used to compare the corrosion inhibition performance of various sulfosuccinates in 5% w/w HCl to the industry standard propargyl alcohol (2-propyn-1-ol) and the corrosion inhibitor Stannine® ETH, which is a blend of amine salts and aliphatic alcohols and is available from Rhodia Novecare.
(§2) • A control solution of 5% w/w HCl was prepared by diluting 37% w/w HCl with deionised water. • An inhibited solution of 5% w/w HCl & 2000 ppm w/w active corrosion inhibitor was then prepared for each of the corrosion inhibitors being evaluated. Stannine® ETH was used at 2000 ppm w/w solids as the active content of Stannine® ETH is unknown. • Each solution was then split evenly between 2 Schott bottles (for duplicate runs) and a pre-weighed C1018 mild steel coupon was placed in each so that it was completely submerged. • The Schott bottles were then sealed tightly and stored for 24 hours in an oven set at 50° C. • After the allotted time the coupons were removed from the oven and cleaned using deionised water, HCl cleaning solution and acetone. The HCl cleaning solution had been made by dissolving 5 g SnCl2 and 2 g SbCl3 in 100 ml of 37% w/w HCl. • The coupons were then oven dried before re-weighing with the average weight change of the duplicate coupons being used to calculate the corrosion rate. The above process was then repeated using (a) 5% w/w H2SO4 and (b) 5% w/w acetic acid instead of HCl.

[3] = Static acid immersion test in 5% w/w H2SO4; conditions: 5% w/w H2SO4, 50° C., 24 hours, 2000 ppm w/w active inhibitor
Protocol: as §1, §2

[4] = Static acid immersion test in 5% w/w acetic acid; conditions: 50° C., 24 hours, 2000 ppm w/w active inhibitor
Protocol: as §1, §2

Compound: Disodium laureth sulfosuccinate
- corrosion rate (LPR), in words [1]: significantly reduce the corrosion rate and have a performance very similar to the industry standard

Compound: CCCCCCCC/C=C\CCCCCCCC(=O)NCCOC(=O)C(CC(=O)[O-])S(=O)(=O)[O-].[Na+].[Na+] (stereo not shown) [Disodium oleamido MEA sulfosuccinate]
- % Efficiency [2]: 88.0%
- Corrosion rate [2]: 171.5 mils/y
- % Efficiency [3]: 65.2%
- Corrosion rate [3]: 669.3 mils/y
- corrosion rate (LPR), in words [1]: significantly reduce corrosion rates, although they do not perform quite as well as the industry standard
- % Efficiency [4]: 56.7%
- Corrosion rate [4]: 60.7 mils/y

Compound: Disodium oleamido MIPA sulfosuccinate
- % Efficiency [2]: 88.5%
- Corrosion rate [2]: 163.3 mils/y
- % Efficiency [3]: 68.4%
- Corrosion rate [3]: 607.0 mils/y
- corrosion rate (LPR), in words [1]: significantly reduce the corrosion rate and have a performance very similar to the industry standard
- % Efficiency [4]: 70.9%
- Corrosion rate [4]: 40.9 mils/y

Compound: Disodium oleth 9 sulfosuccinate
- corrosion rate (LPR), in words [1]: significantly reduce corrosion rates, although they do not perform quite as well as the industry standard

Compound: Disodium ricinoleamido MEA sulfosuccinate
- % Efficiency [2]: 84.4%
- Corrosion rate [2]: 221.4 mils/y
- % Efficiency [3]: 81.1%
- Corrosion rate [3]: 362.5 mils/y
- corrosion rate (LPR), in words [1]: significantly reduce the corrosion rate and have a performance very similar to the industry standard
- % Efficiency [4]: 77.2%
- Corrosion rate [4]: 32.0 mils/y

Compound: C#CCO [Propargyl alcohol, 2-propyn-1-ol, reference compound]
- Corrosion rate [2]: 9.5 mils/y
- % Efficiency [3]: 18.0%
- Corrosion rate [3]: 1575.2 mils/y
- % Efficiency ([3]; listed as propargyl alcohol): not performing well as an inhibitor in this environment

Compound: Disodium cocamido MIPA sulfosuccinate
- corrosion rate (LPR), in words [1]: significantly reduce the corrosion rate and have a performance very similar to the industry standard
